Patent US12440476B2, “Agents that target telomerase reverse transcriptase (TERT) for treating cancer and sensitizing cancer cells to genotoxic therapy” (Northwestern University, priority 2022, dated 2025)

Tests used:
[1] = system: MCF7 cells; conditions: cited from earlier work
[2] = system: CD8+ T cells; experiment: In vitro T cell priming assay (CFSE dilution); format: cell-based, mouse; conditions: DCs stimulated by inhibitor treated and irradiated (10 Gy) CT26 cells; 5 days; NU-1 1 μM, MST 2 μM
Experimental: To evaluate effects of TERT on tumor immunogenicity, CT26 cells were seeded at […] per well in 12-well plates, allowed to attach overnight, and then treated with DMSO, NU-1 (1 μM), or MST-312 (2 μM) for 1 h, followed by 0 or 10 Gy. 5 days after IR, the media were removed, cells washed with PBS, and fresh immune cell culture medium added. CT26 cells were then cultured overnight, followed by coculturing with immature BMDCs for 12-16 h at a 1:2 ratio. After coculture, the suspension BMDCs were collected into round bottom FACS tubes, washed with PBS, and stained with Zombie yellow (1:1000, BioLegend) for 10 min at room temperature. […] After PBS washing, cells were resuspended in 300 μL Cell Staining Buffer and analyzed using a BD Fortessa 4-15 HTS Flow cytometer within 2 hours. Data were then analyzed by FlowJo software. […]
Splenocytes isolated from CT26 immunized mice were stained with 0.5 μM carboxyfluorescein succinimidyl ester (CFSE) (Thermo Fisher Scientific, Cat #C34554) for 10 min at room temperature (Quah et al., 2007). […] Cells were analyzed using a BD Fortessa 4-15 HTS flow cytometer and FlowJo software. […]

[3] = system: Saos-2 cells; experiment: DNA damage foci staining (53BP1, γH2AX); format: cell-based, human; conditions: 1 μM NU-1, 0 or 6 Gy
Experimental: MCF7 or Saos-2 cells were seeded on sterile cover glass at 2.5×10^4 per well in 24-well plates. MCF7 cells were treated with DMSO, NU-2 (0.5 μM), NU-1 (0.5 μM), chrolactomycin (0.5 μM), BIBR 1532 (10 μM), or MST-312 (1 μM) for 1 h, and Saos-2 cells were treated with DMSO or NU-1 (1 μM) for 1 h, followed by 0 or 6 Gy irradiation. 24 h after irradiation, cells were fixed with 4% PFA for 10 min and permeabilized with 0.2% Triton-X 100 diluted in PBS for 10 min at room temperature. After blocking with 5% BSA-PBS for 1 h, primary antibodies for γH2AX (Millipore, 05-636, 1:1000) or 53BP1 (Novus, NB100-304, 1:1000) diluted in 5% BSA-PBS were then incubated on cell slides overnight at 4° C. Following PBS washes, DAPI (1 μg/mL) and fluorescent secondary antibodies (Jackson ImmunoResearch, 1:2000, ) diluted in 5% BSA-PBS were applied for 1 h at room temperature. Cell slides were mounted with ProLong Gold Antifade Mountant (Thermo Fisher Scientific) after PBS washes. Foci images were captured on a Zeiss Axiovert 40CFL with a 40× Plan-NeoFluar objective and pseudo-colored using Fiji. Three replicates were performed.

[4] = system: MCF7 cells; experiment: Clonogenic survival after irradiation (radiosensitivity); format: cell-based, human; conditions: NU-1 0.5 μM
Experimental: (§1) To assess radiosensitivity, MCF7, Saos-2, or CT26 cells were seeded in 6-well plates at 100 cells per well in triplicate, allowed to attach overnight and treated with DMSO or TERT inhibitors at subtoxic concentrations for 1 h prior to IR. MCF7 cells were treated with 0.5 μM NU-1, 10 μM BIBR 1532, or 1 μM MST-312, Saos-2 cells with 1 μM NU-1 or 20 μM BIBR 1532 and CT26 cells with 1 μM NU-1, 20 μM BIBR 1532 or 2 μM MST-312. Doses of 0, 1, 2, 3, 4, or 5 Gy were applied using a GammaCell ^60Co γ-ray source (Nordion) at a dose rate of 7.09 cGy/sec. After that MCF7 and Saos-2 cells were cultured for 3 weeks and CT26 for 2 weeks, then fixed and stained with crystal violet. Colonies of at least 50 cells were counted. Data from three independent biological replicates were acquired. The surviving fraction (SF) was calculated using the following formula: […]

[5] = system: Saos-2 cells; experiment: as above; format: cell-based, human; conditions: NU-1 1 μM
Experimental: as §1

[6] = system: CT26 cells; experiment: as above; format: cell-based, mouse
Experimental: as §1

[7] = system: A549 cells; conditions: cited from earlier work
[8] = Tolerability in mice; format: in vivo; conditions: BALB/c mice

C=C1C(=O)[C@](C)(C(=O)OC)[C@H](CCc2cn(Cc3ccc(F)cc3F)nn2)O[C@@H]1C [NU-1]
LD50 [1]: 21 µM
Proliferating CD8+ T cells [2]: 33.5%
Effect on 53BP1 or γH2AX foci [3]: appeared not to impact 53BP1 or γH2AX foci
Radiosensitization in clonogenic survival assay ([4]; MCF7, BIBR 10 μM, MST 1 μM, IR 0-5 Gy): strongest effects
Mean SF2 (surviving fraction at 2 Gy) ([4]; MCF7 cells, BIBR 1532 10 μM, MST-312 1 μM for 1 h prior to IR, 2 Gy): 0.116
Radiosensitization in clonogenic survival assay ([5]; Saos-2 (telomerase negative), BIBR 20 μM): Neither NU-1 nor BIBR displayed radiosensitization
Mean SF2 (surviving fraction at 2 Gy) ([5]; Saos-2 cells, BIBR 1532 20 μM for 1 h prior to IR, 2 Gy): 0.583
Sensitization of CT26 cells to radiation ([6]; CT26, non-toxic doses): sensitized CT26 cells to radiation
Mean SF2 (surviving fraction at 2 Gy) ([6]; CT26 cells, NU-1 1 μM, BIBR 1532 20 μM, MST-312 2 μM for 1 h prior to IR, 2 Gy): 0.322
LD50 [7]: 35 µM
Tolerability in mice [8]: well-tolerated
